# Laboratory results reported in patent US12642271B2, “Active compound combinations comprising a (thio)carboxamide derivative and a fungicidal compound” (Bayer CropScience Aktiengesellschaft, priority 2011, dated 2026).
# Several values for one entry are separate records, joined by “and”; a condition that tells them apart may be missing. Identical values can stand only once. Like-named read-outs stand apart in the source and are kept apart here.
# Tests used:
# Leptosphaeria nodorum = Leptosphaeria nodorum test (wheat)/preventive; assay type: in vivo
# Septoria tritici = assay: Septoria tritici-test (wheat)/preventive; assay type: in vivo; settings: preventive, evaluated 21 days after inoculation
# [1] = test system: Fusarium nivale (var. majus); assay: Fusarium nivale (var. majus)-test (wheat)/preventive; settings: for pest or weed control at 40 ppm / pest or weed control at 20 ppm / pest or weed control at 80 ppm / pest or weed control at 10 ppm: Microdochium nivale, in Triticum aestivum, 120 h; for pest or weed control at 20 ppm: 20 ppm a.i.; for pest or weed control at 80 ppm: 80 ppm a.i.
# Protocol: After the spray coating has been dried, the plants are slightly injured by using a sandblast and afterwards they are sprayed with a conidia suspension of Fusarium nivale (var. majus).
# The plants are placed in the greenhouse under a translucent incubation cabinet at a temperature of approximately 10° C. and a relative atmospheric humidity of approximately 100%.
# The test is evaluated 5 days after the inoculation.
# Alternaria solani = assay: Alternaria test (tomatoes)/preventive; assay type: in vivo
# Venturia inaequalis = assay: Venturia test (apples)/preventive; settings: for pest or weed control at 1 ppm: 1 ppm a.i.
# Protocol: After the spray coating has dried on, the plants are inoculated with an aqueous conidia suspension of the causal agent of apple scab (Venturia inaequalis) and then remain for 1 day in an incubation cabinet at approximately 20° C. and a relative atmospheric humidity of 100%.
# The plants are then placed in a greenhouse at approximately 21° C. and a relative atmospheric humidity of approximately 90%.
# The test is evaluated 10 days after the inoculation.
# [2] = test system: Blumeria graminis f.sp. hordei; assay: Blumeria test (barley)/preventive; assay type: in vivo
# Puccinia triticina = assay: Puccinia triticina-test (wheat)/preventive; assay type: in vivo; settings: preventive, evaluated 8 days after inoculation
# Sphaerotheca fuliginea = assay: Sphaerotheca test (cucumbers)/preventive; assay type: in vivo
# Phytophthora infestans = assay: whole plant or invertebrate; assay type: in vivo
# [3] = Parastagonospora nodorum, 192 h, application rate 10 ppm, wheat, preventive, evaluated 8 days after inoculation, read-out: Efficacy in % found
# [4] = Zymoseptoria tritici, 504 h, application rate 10 ppm a.i., read-out: Efficacy in % found
# [5] = read-out: Efficacy in % found, Table 8e, 40 ppm a.i.
# [6] = Blumeria graminis, 168 h, Table 6f, 10 ppm a.i., read-out: Efficacy in % found
# [7] = read-out: Efficacy in % found, Table 8c
# [8] = read-out: Efficacy in % found, Table 8e
# [9] = Phytophthora infestans, 72 h, read-out: Efficacy in % found
molecule,measurement,setting,value
"Fc1ccc([C@]2(Cn3cncn3)O[C@H]2c2ccccc2Cl)cc1 (racemic) [B1.12, epoxiconazole]",pest or weed control at 10 ppm,"Leptosphaeria nodorum; Parastagonospora nodorum, 192 h, Table 9a, 10 ppm a.i., read-out: Efficacy in % found",0%
same,pest or weed control at 10 ppm,Leptosphaeria nodorum; [3],29%
same,pest or weed control at 10 ppm,Septoria tritici; [4],0%
same,pest or weed control at 40 ppm,[1]; [5],0%
"Cn1cc(C(=O)Nc2cccc3c2[C@@H]2CC[C@H]3C2=C(Cl)Cl)c(C(F)F)n1 (racemic) [B2.29, benzovindiflupyr]",Efficacy in % found,"Alternaria solani; Table 3e, 0.5 ppm",21%
same,Efficacy in % found,"[1]; Table 8f, 120 ppm a.i.",25%
same,Efficacy in % found,"Venturia inaequalis; Table 2e, 0.1 ppm a.i.",76%
"CC(C)c1ccc(F)cc1CN(C(=O)c1c(C(F)F)nn(C)c1F)C1CC1 [A7, N-cyclopropyl-3-(difluoromethyl)-5-fluoro-N-(5-fluoro-2-isopropylbenzyl)-1-methyl-1H-pyrazole-4-carboxamide]",pest or weed control at 10 ppm,Septoria tritici; [4],71%
"Cc1ccc(C(C)C)c(CN(C(=O)c2c(C(F)F)nn(C)c2F)C2CC2)c1 [A12, N-cyclopropyl-3-(difluoromethyl)-5-fluoro-N-(2-isopropyl-5-methylbenzyl)-1-methyl-1H-pyrazole-4-carboxamide]",pest or weed control at 10 ppm,[2]; [6],50%
same,pest or weed control at 40 ppm,"Puccinia triticina; Puccinia triticina, 192 h, application rate 40 ppm a.i., read-out: Efficacy in % found",89%
"CC1(C)CCC(Cc2ccc(Cl)cc2)C1(O)Cn1cncn1 (centres unmarked) [B1.30, metconazole]",pest or weed control at 80 ppm,"Leptosphaeria nodorum; Parastagonospora nodorum, 192 h, application rate 80 ppm, wheat, preventive, evaluated 8 days after inoculation, read-out: Efficacy in % found",44%
same,pest or weed control at 5 ppm,"Sphaerotheca fuliginea; Podosphaera fuliginea, 168 h, Table 4d, 5 ppm a.i., read-out: Efficacy in % found",77%
same,pest or weed control at 20 ppm,[1]; [7],13%
same,pest or weed control at 80 ppm,[1]; [8],0%
same,pest or weed control at 1 ppm,"Venturia inaequalis; Venturia inaequalis, 240 h, read-out: Efficacy in % found, Table 2c",38%
same,pest or weed control at 20 ppm,"Puccinia triticina; Puccinia triticina, 192 h, application rate 20 ppm a.i., read-out: Efficacy in % found",44%
"CCCC1COC(Cn2cncn2)(c2ccc(Cl)cc2Cl)O1 (centres unmarked) [B1.40, propiconazole]",pest or weed control at 2 ppm,"Alternaria solani; Alternaria solani, 72 h, Table 3c, 2 ppm, read-out: Efficacy in % found",0%
same,pest or weed control at 20 ppm,"Leptosphaeria nodorum; Parastagonospora nodorum, 192 h, application rate 20 ppm, wheat, preventive, evaluated 8 days after inoculation, read-out: Efficacy in % found",0%
same,pest or weed control at 20 ppm,"[1]; read-out: Efficacy in % found, Table 8b",0%
"CC(C)(C)C(O)(CCc1ccc(Cl)cc1)Cn1cncn1 (centres unmarked) [B1.47, tebuconazole]",pest or weed control at 10 ppm,Leptosphaeria nodorum; [3],33%
same,pest or weed control at 40 ppm,"Septoria tritici; Zymoseptoria tritici, 504 h, application rate 40 ppm a.i., read-out: Efficacy in % found",71%
same,pest or weed control at 10 ppm,[2]; [6],50%
same,pest or weed control at 10 ppm,"[2]; Blumeria graminis, 168 h, Table 6d, 10 ppm, read-out: Efficacy in % found",33%
same,pest or weed control at 10 ppm,"[1]; read-out: Efficacy in % found, Table 8c, 10 ppm a.i.",25%
same,pest or weed control at 40 ppm,[1]; [5],0%
same,pest or weed control at 4 ppm,"Puccinia triticina; Puccinia triticina, 192 h, application rate 4 ppm a.i., read-out: Efficacy in % found",33%
"Cn1cc(C(=O)Nc2ccc(F)cc2-c2ccc(Cl)c(Cl)c2)c(C(F)F)n1 [B2.1, bixafen]",Efficacy in % found,"Leptosphaeria nodorum; Table 9a, 40 ppm a.i.",0%
same,Efficacy in % found,"Leptosphaeria nodorum; application rate 40 ppm, wheat, preventive, evaluated 8 days after inoculation",0%
same,Efficacy in % found,"Sphaerotheca fuliginea; Table 4d, 0.5 ppm a.i.",67%
same,Efficacy in % found,Septoria tritici; application rate 10 ppm a.i.,29%
same,Efficacy in % found,Septoria tritici; application rate 40 ppm a.i.,29%
same,Efficacy in % found,"[1]; Table 8b, 10 ppm a.i.",14%
same,Efficacy in % found,Puccinia triticina; application rate 40 ppm a.i.,22%
"Cn1cc(C(=O)Nc2ccccc2-c2cc(F)c(F)c(F)c2)c(C(F)F)n1 [B2.8, fluxapyroxad]",Efficacy in % found,"Leptosphaeria nodorum; application rate 10 ppm, wheat, preventive, evaluated 8 days after inoculation",0%
same,Efficacy in % found,"Sphaerotheca fuliginea; Table 4d, 0.5 ppm a.i.",0%
same,Efficacy in % found,Septoria tritici; application rate 10 ppm a.i.,0%
same,Efficacy in % found,"Venturia inaequalis; Table 2d, 0.25 ppm a.i.",19%
same,Efficacy in % found,Puccinia triticina; application rate 10 ppm a.i.,0%
same,Efficacy in % found,Puccinia triticina; application rate 40 ppm a.i.,67%
"CC(C)CC(C)c1sccc1NC(=O)c1cn(C)nc1C(F)(F)F (centres unmarked) [B2.21, penthiopyrad]",pest or weed control at 0.5 ppm,"Sphaerotheca fuliginea; Podosphaera fuliginea, 168 h, Table 4d, 0.5 ppm a.i., read-out: Efficacy in % found",0%
same,pest or weed control at 20 ppm,"[2]; Blumeria graminis, 168 h, Table 6a, 20 ppm a.i., read-out: Efficacy in % found",20%
same,pest or weed control at 20 ppm,[1]; [7],13%
same,pest or weed control at 80 ppm,[1]; [8],0%
same,pest or weed control at 0.5 ppm,"Venturia inaequalis; Venturia inaequalis, 240 h, read-out: Efficacy in % found, Table 2d, 0.5 ppm a.i.",0%
same,pest or weed control at 80 ppm,"Puccinia triticina; Puccinia triticina, 192 h, application rate 80 ppm a.i., read-out: Efficacy in % found",78%
"CCCCCCCCc1c(CC)nc2ncnn2c1N [B3.1, ametoctradin]",Efficacy in % found,"Phytophthora infestans; Table 1a, 5 ppm a.i.",48%
"COC(=O)N(OC)c1ccccc1COc1ccn(-c2ccc(Cl)cc2)n1 [B3.17, pyraclostrobin]",pest or weed control at 40 ppm,"Leptosphaeria nodorum; Parastagonospora nodorum, 192 h, application rate 40 ppm, wheat, preventive, evaluated 8 days after inoculation, read-out: Efficacy in % found",57%
same,pest or weed control at 2 ppm,"Sphaerotheca fuliginea; Podosphaera fuliginea, 168 h, Table 4d, 2 ppm a.i., read-out: Efficacy in % found",0%
same,pest or weed control at 40 ppm,"[2]; Blumeria graminis, 168 h, Table 6b, 40 ppm a.i., read-out: Efficacy in % found",20%
same,pest or weed control at 40 ppm,"[1]; read-out: Efficacy in % found, Table 8a, 40 ppm",93%
same,pest or weed control at 10 ppm,"[1]; read-out: Efficacy in % found, Table 8e, 10 ppm a.i.",57%
same,pest or weed control at 10 ppm,"[1]; read-out: Efficacy in % found, Table 8d, 10 ppm a.i.",71%
same,pest or weed control at 1 ppm,Phytophthora infestans; [9],53%
same,pest or weed control at 1 ppm,"Venturia inaequalis; Venturia inaequalis, 240 h, read-out: Efficacy in % found, Table 2b",79%
"O=C(NCc1ncc(C(F)(F)F)cc1Cl)c1c(Cl)cccc1Cl [B4.6, fluopicolide]",Efficacy in % found,"Leptosphaeria nodorum; Table 9c, 100 ppm a.i.",17%
same,Efficacy in % found,"[2]; Table 6f, 400 ppm a.i.",13%
same,Efficacy in % found,"Phytophthora infestans; Table 1a, 1 ppm a.i.",13%
"N#Cc1c(Cl)c(Cl)c(Cl)c(C#N)c1Cl [B5.4, chlorothalonil]",pest or weed control at 50 ppm,"Alternaria solani; Alternaria solani, 72 h, Table 3a, 50 ppm a.i., read-out: Efficacy in % found",35%
same,pest or weed control at 50 ppm,Phytophthora infestans; [9],75%
same,pest or weed control at 12.5 ppm,"Venturia inaequalis; Venturia inaequalis, 240 h, read-out: Efficacy in % found, Table 2a, 12.5 ppm a.i.",35%
"N#Cc1ccccc1NC(=O)c1snc(Cl)c1Cl [B6.2, isotianil]",Efficacy in % found,"Alternaria solani; Table 3b, 50 ppm",27%
same,Efficacy in % found,"[2]; Table 6b, 100 ppm a.i.",38%
"COCC(=O)N(c1c(C)cccc1C)[C@H](C)C(=O)OC [B12.10, mefenoxam]",Efficacy in % found,"Leptosphaeria nodorum; application rate 100 ppm, wheat, preventive, evaluated 8 days after inoculation",0%
same,Efficacy in % found,"[2]; Table 6f, 400 ppm a.i.",25%
"CCO[PH](=O)O [B15.24, fosetyl-Al]",Efficacy in % found,"Alternaria solani; Table 3a, 50 ppm a.i.",40%
same,Efficacy in % found,"Sphaerotheca fuliginea; Table 4a, 50 ppm a.i.",0%
same,Efficacy in % found,"Sphaerotheca fuliginea; Table 4d, 12.5 ppm a.i.",0%
same,Efficacy in % found,"Venturia inaequalis; Table 2a, 50 ppm a.i.",0%
"Cn1c(=O)c2sc3c(=O)n(C)c(=O)c3sc2c1=O [B15.60, 2,6-dimethyl-1H,5H-[1,4]dithiino[2,3-c:5,6-c′]dipyrrole-1,3,5,7(2H,6H)-tetrone]",pest or weed control at 50 ppm,"Alternaria solani; Alternaria solani, 72 h, Table 3d, 50 ppm, read-out: Efficacy in % found",0%
"CCN(C)C=Nc1cc(C)c(Oc2nc(Cc3ccc(Cl)cc3)ns2)cc1C [B15.78, N′-(4-{[3-(4-chlorobenzyl)-1,2,4-thiadiazol-5-yl]oxy}-2,5-dimethylphenyl)-N-ethyl-N-methylimidoformamide]",pest or weed control at 5 ppm,"Venturia inaequalis; Venturia inaequalis, 240 h, read-out: Efficacy in % found, Table 2f, 5 ppm a.i.",16%
same,pest or weed control at 62.5 ppm,"Puccinia triticina; Puccinia triticina, 192 h, application rate 62.5 ppm a.i., read-out: Efficacy in % found",57%
folpet [B5.16],Efficacy in % found,"Alternaria solani; Table 3e, 12.5 ppm",39%
same,Efficacy in % found,"Leptosphaeria nodorum; application rate 400 ppm a.i., wheat, preventive, evaluated 8 days after inoculation",44%
same,Efficacy in % found,"Sphaerotheca fuliginea; Table 4a, 25 ppm a.i.",0%
same,Efficacy in % found,"[1]; Table 8f, 200 ppm a.i.",50%
same,Efficacy in % found,"Venturia inaequalis; Table 2a, 12.5 ppm a.i.",47%
same,Efficacy in % found,"Venturia inaequalis; Table 2e, 10 ppm a.i.",45%
mancozeb [B5.23],Efficacy in % found,"Alternaria solani; Table 3a, 50 ppm a.i.",56%
same,Efficacy in % found,"Alternaria solani; Table 3d, 50 ppm",0%
same,Efficacy in % found,"Leptosphaeria nodorum; Table 9e, 100 ppm a.i.",0%
same,Efficacy in % found,"Sphaerotheca fuliginea; Table 4a, 25 ppm a.i.",0%
same,Efficacy in % found,"[2]; Table 6c, 400 ppm",0%
same,Efficacy in % found,"Phytophthora infestans; Table 1c, 50 ppm a.i.",45%
propamocarb-HCl [B10.10],Efficacy in % found,"Alternaria solani; Table 3a, 50 ppm a.i.",0%
same,Efficacy in % found,"Sphaerotheca fuliginea; Table 4a, 50 ppm a.i.",0%
same,Efficacy in % found,"Sphaerotheca fuliginea; Table 4d, 50 ppm a.i.",70%
same,Efficacy in % found,"[2]; Table 6c, 400 ppm",13%
same,Efficacy in % found,"Venturia inaequalis; Table 2a, 50 ppm a.i.",0%
propineb [B5.29],Efficacy in % found,"Alternaria solani; Table 3a, 50 ppm a.i.",33%
same,Efficacy in % found,"Alternaria solani; Table 3d, 50 ppm",0%
same,Efficacy in % found,"Sphaerotheca fuliginea; Table 4a, 50 ppm a.i.",0%
same,Efficacy in % found,"Sphaerotheca fuliginea; Table 4d, 50 ppm a.i.",70%
same,Efficacy in % found,"[2]; Table 6c, 400 ppm",13%
same,Efficacy in % found,"Phytophthora infestans; Table 1c, 50 ppm a.i.",50%
spiroxamine [B1.46],Efficacy in % found,"Leptosphaeria nodorum; Table 9a, 200 ppm a.i.",29%
same,Efficacy in % found,"Leptosphaeria nodorum; application rate 200 ppm, wheat, preventive, evaluated 8 days after inoculation",22% and 40%
same,Efficacy in % found,"Sphaerotheca fuliginea; Table 4b, 25 ppm a.i.",0%
same,Efficacy in % found,Puccinia triticina; application rate 200 ppm a.i.,0%
